Columns and labels:
[1] = test system: pig RBC; assay: Hemagglutination of pig RBC by human serum: sugar inhibition; format: cell-based; conditions: for Inhibitory Concentration: inhibition of pig RBC hemagglutination by pooled human AB serum; for concentration range inhibiting agglutination (in words): pig RBC agglutination by human serum
Experimental: The methods used to investigate the hemagglutination of pig red blood cells (RBC's) by human serum was adapted from the methods described by Galili, J. Exp. Med. 160: 1579–81 (1984) and Severson, Immunol. 96: 785–789 (1966).
A. Media/Solution Preparation • 1. Human Serum Albumin (HSA) (CSL, Melbourne, Australia) (5 mg/ml) was dissolved in PBS, filter sterilized, and stored at 4° C. • 2. Preparation of sugars: • 1 M stock solutions of sugar were prepared by dissolving the amount indicated in 100 ml of PBS. Sodium azide was added (0.02%) and solutions stored at 4° C.
B. Preparation of Pig RBC'S • 1. Heparinised pig blood (Animal Resources, Clayton, Australia) is centrifuged at 800 RPM for 10 min to pellet the RBC. • 2. The RBC pellet is washed by resuspension in PBS (10 ml) and recentrifugation (repeated 3 times). After the final wash, the RBC pellet is resuspended in 10 ml PBS. • 3. A 0.5% solution of RBC's is prepared by adding 50 ul RBC solution (from step 2, above) to 10 ml PBS containing 0.5 g/100 ml of HSA.
C. Preparation of 96-well Microtitre Plates (Titretek. USA) • 1. Add 25 ul of PBS to each well. • 2. Add 25 ul of pooled human AB serum (CSL, Melbourne, Australia) to column 1 and serially dilute by removing 25 ul from column 1 and adding to column 2, then repeating by sequentially removing and adding 25 ul from and to each well across the plate, finally discarding 25 μl from column 11 and adding no serum to column 12. • 3. Add 25 ul of sugar solution to each row in decreasing concentrations down rows. No sugar solution is added to the final row. • 4. Incubate at 4° C. overnight and then at 37° C. for 30 min. • 5. Add 50 ul of 0.5% pig RBC to each well; vortex and incubate at room temperature for 2 hours. Determine agglutination visually. II. Results

[2] = test system: pig kidney, heart and liver sections; assay: Immunostaining of pig tissues with anti-GAL antibodies; format: binding; conditions: pig renal cortex sections, proximal tubule brush borders; sugar 0.1 M
Experimental: Pig kidney was fixed in formalin and dehydrated before embedding in Paraplast. Pig heart and liver were fixed in paraformaldehyde-lysine-periodate fixative and snap frozen in O.C.T. embedding compound (10.24% w/w polyvinyl alcohol, 4.26% w/w polyethylene glycol, 85.50% w/w nonreactive ingredients; Tissue Tek®, Miles, Inc., Elkhart, Ind., USA). Four μm-thick sections of pig heart and liver and 2 μm-thick sections of kidney were incubated with purified anti-GAL antibodies (undiluted, 1:2 and 1:4) for 60 min. and then incubated with a fluorescein isothiocyanate (FITC)-conjugated sheep anti-human immunoglobulin F(ab′) fragment. (Silenus Laboratories, Hawthorn, Australia) (1:100) for 30 min. or a peroxidase-conjugated rabbit anti-human IgG (Dakopatts, Glostrup, Denmark) (1:50) for 60 min. Control sections were analyzed for autofluorescence, with the secondary antibody alone, or with the anti-GAL-depleted IgG or normal pig serum as the primary antibody. […] The specificity of the anti-GAL antibodies was tested by pre-incubating sections of pig renal cortex with a variety of sugars, including melibiose, lactose, sucrose and glucose at 0.1 M.

[3] = test system: PK-1 and PAE's cells; assay: Antibody staining and FACS analysis of porcine cells; format: binding; conditions: for inhibition of anti-GAL IgM and/or IgG staining of porcine cells by sugar: anti-GAL antibodies pre-incubated with sugar (0.1 M) at 37° C. for 30 min
Experimental: C. Antibody Staining and FACS Analysis • 1) Add 2 ml TED to a 75 cm^2 culture flask containing PK-1 or PAE'S, and incubate at room temperature for 10 min. • 2) Add RPMI plus 10% FCS (5 ml) to neutralize trypsin. • 3) Pellet cells by centrifugation (700 g, 5 min, • 4) Wash cells by resuspension and centrifugation in Hanks Buffer (×2). • 5) Pellet cells by centrifugation (700 g, 5 min, 4° C.). • 6) Resuspend cell pellet in Hanks buffer containing purified anti-GAL antibodies, GAL-depleted serum or GAL-depleted IgG and incubate at 4° C. for 60 min. All antibodies were used undiluted, or diluted 1:2 or 1:4 in Hanks buffer. • 7) Add 1 ml of Hanks Buffer, pellet cells by centrifugation and aspirate off supernatant. • 8) Resuspend pellet in FITC-labelled sheep-anti-human IgG Fab2 or IgM Fab2 (Silenus, Hawthorn, Australia) diluted 1:80 in Hanks buffer. • 9) Incubate for 30 min. at 4° C. • 10) Wash three times with Hanks buffer; resuspend pellet from final wash in 0.5 ml Hanks buffer. • 11) Analyze stained samples using a FACScan II (Becton Dickinson) according to the manufacturer's instructions.
The specificity of the anti-GAL antibody binding to porcine cells was determined by examining the ability of sugars of various structures to inhibit antibody binding. In these competition studies the anti-GAL antibodies were pre-incubated with sugar (0.1 M) at 37° C. for 30 min before adding to the cells.

Row | Structure (SMILES) | Inhibitory Concentration [1] | concentration range inhibiting agglutination (in words) [1] | inhibition of anti-GAL antibody binding to pig tissue by sugar [2] | inhibition of anti-GAL IgM and/or IgG staining of porcine cells by sugar [3] | decrease of anti-GAL antibody staining of PAE's (FIG. 1) ([3]; anti-GAL antibody pre-incubated with sugar, versus anti-GAL antibody alone)
1 | OC[C@H]1O[C@@](CO)(O[C@H]2O[C@H](CO)[C@@H](O)[C@H](O)[C@H]2O)[C@@H](O)[C@@H]1O [Sucrose, α-D-Glucopyranosyl β-D-fructofuranoside] | >10^−1M | only inhibitory when very high concentrations were used | not inhibited |  | 
2 | OC[C@H]1O[C@H](OC[C@H]2O[C@H](OC[C@H]3O[C@H](O[C@]4(CO)O[C@H](CO)[C@@H](O)[C@@H]4O)[C@H](O)[C@@H](O)[C@@H]3O)[C@H](O)[C@@H](O)[C@H]2O)[C@H](O)[C@@H](O)[C@H]1O [Stachyose, α-D-gal-[1->6]-α-D-Glc-[1->2]-β-D-Fru] | 0.002 M | μM to mM range |  | inhibited | 
3 | O=C[C@H](O)[C@@H](O)[C@@H](O)[C@H](O)CO [Galactose, D(+)galactose] | 0.002 M | μM to mM range |  | inhibited | approximately 10 fold less

From patent publication US7201899B2, “Materials and methods for management of hyperacute rejection in human xenotransplantation” (BresaGen Limited, priority 1994, dated 2007)
